Experimental data taken from PubChem BioAssay (NCI).
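48-hour exposure; five concentrations; linearly interpolated endpoints. GI50: concentration for 50% inhibition of growth. TGI is the concentration that stops growth completely.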

Columns and labels:
Assay in all cases: inhibition of tumour cell growth, NCI panel, 48 h
[1] = tested on: MOLT-4 leukemia
[2] = tested on: T-47D breast
[3] = tested on: HCT-15 colon
[4] = tested on: 786-0 renal
[5] = tested on: NCI-H522 lung
[6] = tested on: UACC-62 melanoma
[7] = tested on: HCT-116 colon
[8] = tested on: SF-295 CNS
[9] = tested on: COLO 205 colon
[10] = tested on: SNB-75 CNS
[11] = tested on: SK-MEL-5 melanoma
[12] = tested on: A549 NSCLC
[13] = tested on: HT29 colon
[14] = tested on: OVCAR-5 ovarian
[15] = tested on: EKVX NSCLC
[16] = tested on: A498 renal
[17] = tested on: K-562 leukemia
[18] = tested on: KM12 colon
[19] = tested on: UACC-257 melanoma
[20] = tested on: HL-60(TB) leukemia
[21] = tested on: U251 CNS
[22] = tested on: MCF7 breast
[23] = tested on: SK-OV-3 ovarian
[24] = tested on: NCI-H226 lung
[25] = tested on: RXF 393 renal
[26] = tested on: SW-620 colon
[27] = tested on: BT-549 breast
[28] = tested on: SF-268 CNS
[29] = tested on: LOX IMVI melanoma
[30] = tested on: ACHN renal
[31] = tested on: OVCAR-8 ovarian
[32] = tested on: SK-MEL-28 melanoma
[33] = tested on: SK-MEL-2 melanoma
[34] = tested on: HS 578T breast
[35] = tested on: SN12C renal
[36] = tested on: NCI-H23 lung
[37] = tested on: SNB-19 CNS
[38] = tested on: CCRF-CEM leukemia
[39] = tested on: RPMI-8226 leukemia
[40] = tested on: UO-31 renal
[41] = tested on: CAKI-1 renal
[42] = tested on: NCI-H460 lung
[43] = tested on: HCC-2998 colon
[44] = tested on: MDA-MB-231 breast
[45] = tested on: SR leukemia
[46] = tested on: TK-10 renal
[47] = tested on: MALME-3M melanoma
[48] = tested on: HOP-92 NSCLC
[49] = tested on: DU-145 prostate
[50] = tested on: PC-3 prostate
[51] = tested on: OVCAR-3 ovarian
[52] = tested on: MDA-MB-435
[53] = tested on: NCI/ADR-RES ovarian
[54] = tested on: SF-539 CNS
[55] = tested on: IGROV1 ovarian
[56] = tested on: M14 melanoma
[57] = tested on: OVCAR-4 ovarian
[58] = tested on: HOP-62 NSCLC

COC(=O)C(=Cc1ccccc1[N+](=O)[O-])C(=O)OC was tested. Which GI50 [1] did it give?
Its GI50 is 2.31 µM.

And the TGI [1]?
The TGI was 7.21 µM.

And the GI50 [2]?
The GI50 was 2.12 µM.

What about the TGI [2] of the same compound?
Its TGI is 11 µM.

And the GI50 [3]?
The GI50 was 2.08 µM.

And the TGI [3]?
The TGI was 10.7 µM.

What about the GI50 [4] of the same compound?
The GI50 was 4.24 µM.

What about the TGI [4] of the same compound?
Its TGI is 14.2 µM.

And the GI50 [5]?
The GI50 was 1.9 µM.

And the TGI [5]?
The TGI was 6.65 µM.

What about the GI50 [6] of the same compound?
The GI50 was 3.79 µM.

And the TGI [6]?
The TGI was 15.5 µM.

And the GI50 [7]?
The GI50 was 2.69 µM.

What about the TGI [7] of the same compound?
The TGI was 9.55 µM.

What about the GI50 [8] of the same compound?
The GI50 was 4.08 µM.

And the TGI [8]?
Its TGI is 17.3 µM.

And the GI50 [9]?
The GI50 was 3.05 µM.

What about the TGI [9] of the same compound?
The TGI was 11 µM.

And the GI50 [10]?
Its GI50 is 2.75 µM.

And the TGI [10]?
The TGI was 15.3 µM.

What about the GI50 [11] of the same compound?
Its GI50 is 2.55 µM.

And the TGI [11]?
Its TGI is 9.2 µM.

What about the GI50 [12] of the same compound?
The GI50 was 3.98 µM.

And the TGI [12]?
Its TGI is 21.7 µM.

What about the GI50 [13] of the same compound?
Its GI50 is 3.54 µM.

What about the TGI [13] of the same compound?
The TGI was 14.4 µM.

And the GI50 [14]?
Its GI50 is 3.13 µM.

And the TGI [14]?
The TGI was 8.35 µM.

What about the GI50 [15] of the same compound?
The GI50 was 4.23 µM.

What about the TGI [15] of the same compound?
The TGI was 17 µM.

What about the GI50 [16] of the same compound?
The GI50 was 2.75 µM.

What about the TGI [16] of the same compound?
The TGI was 8.23 µM.

And the GI50 [17]?
The GI50 was 2.51 µM.

What about the TGI [17] of the same compound?
Its TGI is 9.48 µM.

And the GI50 [18]?
The GI50 was 2.99 µM.

What about the TGI [18] of the same compound?
Its TGI is 10 µM.

What about the GI50 [19] of the same compound?
Its GI50 is 4.06 µM.

And the TGI [19]?
Its TGI is 17.3 µM.

And the GI50 [20]?
Its GI50 is 2.78 µM.

What about the TGI [20] of the same compound?
The TGI was greater than 100 µM.

And the GI50 [21]?
The GI50 was 3.23 µM.

And the TGI [21]?
Its TGI is 13.9 µM.

What about the GI50 [22] of the same compound?
Its GI50 is 2.35 µM.

And the TGI [22]?
Its TGI is 11.2 µM.

And the GI50 [23]?
Its GI50 is 10.2 µM.

And the TGI [23]?
The TGI was 21.8 µM.

What about the GI50 [24] of the same compound?
Its GI50 is 8.34 µM.

And the TGI [24]?
The TGI was 24.8 µM.

What about the GI50 [25] of the same compound?
The GI50 was 1.87 µM.

And the TGI [25]?
Its TGI is 4.3 µM.

What about the GI50 [26] of the same compound?
Its GI50 is 3.9 µM.

What about the TGI [26] of the same compound?
The TGI was 12.7 µM.

And the GI50 [27]?
Its GI50 is 7.14 µM.

And the TGI [27]?
The TGI was 19.8 µM.

What about the GI50 [28] of the same compound?
The GI50 was 3.06 µM.

What about the TGI [28] of the same compound?
The TGI was 12.7 µM.

What about the GI50 [29] of the same compound?
The GI50 was 2.08 µM.

And the TGI [29]?
The TGI was 5.88 µM.

And the GI50 [30]?
Its GI50 is 4.33 µM.

What about the TGI [30] of the same compound?
Its TGI is 15.6 µM.

And the GI50 [31]?
Its GI50 is 3.53 µM.

And the TGI [31]?
Its TGI is 40.8 µM.

And the GI50 [32]?
Its GI50 is 2.16 µM.

What about the TGI [32] of the same compound?
Its TGI is 6.06 µM.

And the GI50 [33]?
Its GI50 is 3.61 µM.

What about the TGI [33] of the same compound?
The TGI was 16.4 µM.

And the GI50 [34]?
Its GI50 is 2.04 µM.

And the TGI [34]?
Its TGI is 8.09 µM.

What about the GI50 [35] of the same compound?
The GI50 was 3.63 µM.

What about the TGI [35] of the same compound?
The TGI was 18.1 µM.

And the GI50 [36]?
Its GI50 is 2.62 µM.

What about the TGI [36] of the same compound?
The TGI was 9.83 µM.

What about the GI50 [37] of the same compound?
Its GI50 is 5.41 µM.

And the TGI [37]?
The TGI was 21.6 µM.

What about the GI50 [38] of the same compound?
Its GI50 is 1.81 µM.

What about the TGI [38] of the same compound?
Its TGI is 5.16 µM.

And the GI50 [39]?
The GI50 was 1.27 µM.

What about the TGI [39] of the same compound?
Its TGI is 3.63 µM.

What about the GI50 [40] of the same compound?
Its GI50 is 2.31 µM.

What about the TGI [40] of the same compound?
The TGI was 9.8 µM.

What about the GI50 [41] of the same compound?
Its GI50 is 3.61 µM.

What about the TGI [41] of the same compound?
Its TGI is 14.1 µM.

And the GI50 [42]?
Its GI50 is 3.41 µM.

And the TGI [42]?
The TGI was 13.7 µM.

And the GI50 [43]?
The GI50 was 2.68 µM.

And the TGI [43]?
Its TGI is 7.36 µM.

And the GI50 [44]?
The GI50 was 3.68 µM.

And the TGI [44]?
Its TGI is 13.5 µM.

What about the GI50 [45] of the same compound?
The GI50 was 1.04 µM.

And the TGI [45]?
The TGI was 4.84 µM.

And the GI50 [46]?
The GI50 was 5.93 µM.

What about the TGI [46] of the same compound?
The TGI was 18.1 µM.

What about the GI50 [47] of the same compound?
The GI50 was 4.44 µM.

And the TGI [47]?
The TGI was 18.1 µM.

What about the GI50 [48] of the same compound?
The GI50 was 2.38 µM.

What about the TGI [48] of the same compound?
The TGI was 7.4 µM.

What about the GI50 [49] of the same compound?
Its GI50 is 2.29 µM.

And the TGI [49]?
The TGI was 6.61 µM.

And the GI50 [50]?
Its GI50 is 4.63 µM.

What about the TGI [50] of the same compound?
The TGI was 21.1 µM.

What about the GI50 [51] of the same compound?
The GI50 was 2.28 µM.

What about the TGI [51] of the same compound?
Its TGI is 5.67 µM.

What about the GI50 [52] of the same compound?
The GI50 was 2.26 µM.

And the TGI [52]?
Its TGI is 10.2 µM.

And the GI50 [53]?
Its GI50 is 2.31 µM.

And the TGI [53]?
The TGI was 5.77 µM.

What about the GI50 [54] of the same compound?
The GI50 was 2.63 µM.

What about the TGI [54] of the same compound?
The TGI was 7.5 µM.

And the GI50 [55]?
Its GI50 is 3.41 µM.

And the TGI [55]?
The TGI was 12 µM.

What about the GI50 [56] of the same compound?
The GI50 was 3.04 µM.

And the TGI [56]?
Its TGI is 14 µM.

What about the GI50 [57] of the same compound?
Its GI50 is 3.94 µM.

And the TGI [57]?
Its TGI is 16.1 µM.

And the GI50 [58]?
Its GI50 is 13.6 µM.

What about the TGI [58] of the same compound?
The TGI was 27.1 µM.
